Reference: patent US10328114B2, “Lung injury repair compositions and methods” (University of Iowa Research Foundation, priority 2015, dated 2019)
Entries after “also recorded” stand apart in the source; their conditions may differ. Where two headings read alike, the source gives them in different places. *: point of attachment. Myristoyl = CCCCCCCCCCCCCC(=O)*

Legend:
PKCζ = biological target: T1, PKCζ (Mus musculus, UniProt Q02956); assay: PKCζ activation (p-PKCζ) in lungs, bleomycin induced ALI mouse model, Western blot and immunofluorescence; type: in vivo; settings: for activation of PKC-ζ in vivo: lungs harvested at 1, 3 and 6 weeks, Western blot and immunofluorescence
T1 construct: from tissue; host or cells: lungs of C57BL/6 mice (lung homogenates and frozen lung sections)
T1 sequence (Q02956 1-592): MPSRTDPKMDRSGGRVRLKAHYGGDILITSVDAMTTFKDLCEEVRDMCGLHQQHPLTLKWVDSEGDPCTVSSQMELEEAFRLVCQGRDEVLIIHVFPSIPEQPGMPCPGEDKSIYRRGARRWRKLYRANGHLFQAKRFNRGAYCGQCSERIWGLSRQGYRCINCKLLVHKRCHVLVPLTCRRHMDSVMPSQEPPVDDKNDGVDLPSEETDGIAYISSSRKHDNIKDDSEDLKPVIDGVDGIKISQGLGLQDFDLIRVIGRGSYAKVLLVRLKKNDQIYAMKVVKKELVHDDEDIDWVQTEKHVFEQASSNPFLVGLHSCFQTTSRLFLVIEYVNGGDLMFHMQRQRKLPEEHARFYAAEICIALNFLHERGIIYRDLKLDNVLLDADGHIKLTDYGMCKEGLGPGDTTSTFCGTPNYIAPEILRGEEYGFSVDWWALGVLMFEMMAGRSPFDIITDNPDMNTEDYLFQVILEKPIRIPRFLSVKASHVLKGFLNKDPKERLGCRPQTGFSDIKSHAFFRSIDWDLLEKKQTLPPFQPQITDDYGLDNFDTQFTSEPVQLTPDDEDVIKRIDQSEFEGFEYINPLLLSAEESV
Procedure: Mice were randomly divided into four groups: (i) control: PBS plus DMSO (1 μl/mouse) (ii) PKC-ζ pseudosubstrate inhibitor (PKC-ζ ps) (1 μg/mouse suspended in DMSO), a pharmacological inhibitor that competes for the pseudosubstrate domain which give specificity to several PKCζ isoforms (Hofmann, J. (1997). “The potential for isoenzyme-selective modulation of protein kinase C.” FASEB J 11(8): 649-669); (iii) bleomycin: bleomycin suspended in PBS (4 U/kg); and (iv) Bleomycin+PKCζi: bleomycin (4 U/kg) plus (1 μg/mouse) PKCζi. The above conditions were administered intratracheally (50 μL) to 6-8 wk-old mice after 2-5 min of anesthesia with 4% isoflurane via a precision Fortec vaporizer (Cyprane, Keighley, UK). Treatment with DMSO or PKCζi was administered every 72 hours and followed for up to 6 weeks. At 1, 3, and 6 weeks mice were euthanized and lungs harvested.
(§1) Animal protocols were approved by the Institutional Animal Care and Use Committee at the University of Iowa. C57BL/6 mice (Jackson Laboratories, Bar Harbor, Me.) were anesthetized followed by intratracheal instillation of: (A) Control (Ctrl): 1 μl of DMSO (Sigma, St. Louis, Mo.) plus 49 μl of PBS; (B) Bleomycin (Bleo): 1 μl of DMSO plus 49 μl of bleomycin (APP pharmaceuticals, LLC Schaumburg, Ill.) dissolved in PBS (4 U/kg); (C) Bleomycin/PKCζi (Bleo/PKCζi): 1 μg of PKCζi (Calbiochem EMD Biosciences, San Diego, Calif.) solubilized in 1 μl of DMSO plus 49 μl of bleomycin (4 U/Kg) dissolved in PBS (Calbiochem EMD Biosciences, San Diego, Calif.). After this treatment, all mice were instilled (50 μl) every 72 hours with 1 μl of DMSO plus 49 μl of PBS in the Ctrl and Bleo group or with 1 μg of PKCζi dissolved in 1 μl of DMSO plus 49 μl of PBS in the Bleo/PKCζi group for the duration of the experiment. Mice were treated for up to 6 weeks (FIG. 1A). All conditions had between 4 to 6 animals.
Western blot analysis was performed using Phospho-(Ser) PKCζ substrate rabbit monoclonal antibody (Cell Signaling, Beverly, Mass.), total PKCζ rabbit polyclonal antibody (Santa Cruz Biotechnology, Dallas, Tex.) and mature surfactant protein C (SPC) rabbit polyclonal antibody (Seven Hill Bioreagents, Cincinnati, Ohio).
(§2) After dissection, immunofluorescence labeling was performed on frozen mouse lung tissue sections with polyclonal anti p-PKCζ (Santa Cruz Biotechnology, Dallas, Tex.) or monoclonal β4 antibody (Clone 346-11a, BD Biosciences, San Jose, Calif.) (23). In addition, Terminal deoxynucleotidyltransferase dUTP nick end labeling (TUNEL) staining was performed on week 1 mouse lung tissue sections (24).

[1] = tested on: BALF isolated cells from bleomycin treated mice; assay: ROS production (extracellular H2O2) of BALF cells, p-hydroxyphenylacetate method; type: in vivo, mouse; settings: week 1 post initial instillation
Procedure: as §1
BALF cells from week 1 post initial instillation were determined by the p-hydroxyphenylacetate method as reported previously (25).

[2] = tested on: bleomycin induced ALI mouse model; assay: Lung collagen deposition (hydroxyproline assay, Masson's trichrome) in bleomycin ALI model; type: in vivo; settings: for lung fibrosis / lung injury resolution, biochemical and histological evidence: active TGF β, hydroxyproline, Masson staining
Procedure: as §1
The collagen content in the lung homogenates was determined with a hydroxyproline assay, as described previously (26). In addition, lung collagen deposition was examined in lung sections stained with Masson's trichrome.

DLEP integrin β4^+ cells = assay: DLEP integrin β4+ cells in mouse lungs by immunofluorescence after bleomycin injury; type: in vivo
From the text: (8) PKC-ζi promotes proliferation of distal lung epithelial progenitor cells. Recently Chapman et al reported that integrin α6β4 identifies a population of lung cells with regenerative potential in mice (Chapman et al. (2011). “Integrin alpha6beta4 identifies an adult distal lung epithelial population with regenerative potential in mice.” J Clin Invest 121(7): 2855-2862). Furthermore, Li et al, reported same population in human lungs (Li et al. (2013). “Integrin alpha6beta4 identifies human distal lung epithelial progenitor cells with potential as a cell-based therapy for cystic fibrosis lung disease.” PLoS One 8(12): e83624). Therefore, the inventors set out to examine by immunofluorescence the presence of these cells in mouse lungs at 3 and 6 weeks after bleomycin treatment. […] In addition, the inventors isolated mouse α6β4 cells and treated them for 2 weeks with PKC-ζi ([…]).
as §1, §2

mouse DLEP α6β4^+ cells = assay: Isolated DLEP α6β4+ cell colony assay (Example 3); type: cell-based; settings: PKCζi 10 μM, 2 weeks, 20% BALF from week 1 bleomycin injured mice
Procedure: Isolated mouse DLEP α6β4^+ cells in the presence of 20% of BALF from week 1 mice injured with bleomycin were treated with PKCζi (10 μM) for 2 weeks. At week 3 the colonies derived from cre-GFP (lox-tm-TR/GFP) for surfactant protein C (SPC)/Tomato red with hydroxy-tamoxifen were exposed in order to trace the differentiation of β4^+ colonies into SPC^+ cells.

[3] = tested on: isolated rat primary alveolar epithelial cells; settings: hypoxia and diesel exhaust particle in vitro lung injury models, cited from earlier work

N-Myristoyl-Ser-Ile-Tyr-Arg-Arg-Gly-Ala-Arg-Arg-Trp-Arg-Lys-Leu-OH (Myristoyl-SIYRRGARRWRKL-OH; SMILES CCCCCCCCCCCCCC(=O)N[C@@H](CO)C(=O)N[C@H](C(=O)N[C@@H](Cc1ccc(O)cc1)C(=O)N[C@@H](CCCNC(=N)N)C(=O)N[C@@H](CCCNC(=N)N)C(=O)NCC(=O)N[C@@H](C)C(=O)N[C@@H](CCCNC(=N)N)C(=O)N[C@@H](CCCNC(=N)N)C(=O)N[C@@H](Cc1c[nH]c2ccccc12)C(=O)N[C@@H](CCCNC(=N)N)C(=O)N[C@@H](CCCCN)C(=O)N[C@@H](CC(C)C)C(=O)O)[C@@H](C)CC) [PKCζi]
activation of PKC-ζ in vivo (PKCζ): prevents activation of PKCζ in vivo
activation of PKC-ζ in vivo (PKCζ; listed as PKC-ζi): prevented the activation of PKC-ζ
p-PKCζ / total PKCζ, Western blot densitometry of lung homogenates (PKCζ; week 1, PKCζi 1 μg intratracheal every 72 hours, vs Bleo group): prevented bleomycin induced increased ratio p-PKC/total PKCζ; also recorded: decreased p-PKCζ at week 1 compared to Bleo group
p-PKCζ immunostaining intensity in lung (PKCζ; week 3 and 6, vs bleomycin group): did not have any increase in p-PKCζ at week 3; also recorded: decreased intensity in the Bleo/PKCζi group compared to bleomycin group at week 3 and 6
ROS production / extracellular hydrogen peroxide (H2O2) of BALF cells [1]: does not reduce extracellular hydrogen peroxide (H2O2) in BALF isolated cells from bleomycin treated mice lung
ROS production / extracellular hydrogen peroxide (H2O2) of BALF cells ([1]; listed as PKC-ζi): did not prevent ROS production in bleomycin treated mice
collagen lung deposition by Masson's staining ([2]; FIG. 4C, printed as week 3): decreased collagen lung deposition by masson's staining at week 3 compared to bleomycin group
hydroxyproline content, PKCζi only during the first week ([2]; measured at week 6): increase hydroxyproline content similar to Bleomycin alone group at week 6
histological lung collagen deposition ([2]; three weeks after bleomycin, Example 1): histological evidence of lung collagen deposition
lung hydroxyproline concentration ([2]; week 3 post injury): no difference in active TGF β and hydroxyproline concentrations compared to bleomycin group; also recorded: does not decrease hydroxyproline concentration
lung hydroxyproline concentration ([2]; week 3 post injury, listed as PKC-ζi): high concentrations of hydroxyproline
lung fibrosis / lung injury resolution, biochemical and histological evidence ([2]; week 6): demonstrated lung injury resolution in the PKCζi treated group
lung fibrosis / lung injury resolution, biochemical and histological evidence ([2]; week 6, listed as PKC-ζi): total resolution of lung fibrosis in the PKC-ζi treated group
lung hydroxyproline concentration ([2]; week 6, continuous PKCζi treatment): decreased hydroxyproline concentration at week 6 compare to bleomycin group
number of lung DLEP integrin β4+ (α6β4) cells (DLEP integrin β4^+ cells; week 3 after bleomycin): an increase in DLEP integrin β4^+ cells in the PKCζi treated mice at week 3
number of lung DLEP integrin β4+ (α6β4) cells (DLEP integrin β4^+ cells; week 3 after bleomycin, listed as PKC-ζi): an increase trend in α6β44 in the PKC-ζi treated mice
number of lung DLEP integrin β4+ (α6β4) cells (DLEP integrin β4^+ cells; week 6 after bleomycin): became statistically significant at week 6; also recorded: increased number of lung DLEP integrin β4^+ cells compared to bleomycin group at week 6
number of lung DLEP integrin β4+ (α6β4) cells (DLEP integrin β4^+ cells; week 6 after bleomycin, listed as PKC-ζi): became significant at 6 weeks
number of α6β4+ colonies (mouse DLEP α6β4^+ cells): increased the number of α6β4^+ colonies compared to control; also recorded: promotes proliferation DLEP α6β4^+ cells in vitro
alveolar epithelial barrier integrity [3]: prevents the disruption of the epithelial barrier in isolated rat primary alveolar epithelial cells
alveolar epithelial barrier integrity ([3]; listed as PKC-ζ inhibitor): preserves the alveolar epithelial barrier
